Experimental data: ChEMBL document CHEMBL4325863, “Investigating alkyl nitrates as nitric oxide releasing precursors of multitarget acetylcholinesterase-monoamine oxidase B inhibitors” (Eur J Med Chem, 2019)

Columns and labels:
Cholinesterase [1] = molecular target: Cholinesterase (Equus caballus, UniProt P81908); experiment: Inhibition of equine serum BuChE using butyrylthiocholine iodide as substrate by Ellman's method
[2] = Apparent permeability from basolateral to apical side in MDCK2-MDR1 cells by UV-Visible spectrophotometric method; type: ADME, cell-based, Canis lupus familiaris; details: dog, MDCK-MDR1
Acetylcholinesterase [3] = molecular target: Acetylcholinesterase (Homo sapiens, UniProt P22303); experiment: Inhibition of human recombinant AChE using acetylthiocholine iodide as substrate by Ellman's method
[4] = molecular target: T1, Amine oxidase [flavin-containing] A (Homo sapiens, UniProt P21397); experiment: Inhibition of recombinant human MAO-A expressed in baculovirus infected insect cell microsomes using kynuramine as substrate measured after 30 mins by fluorescence based assay
T1 sequence (P21397 whole entry): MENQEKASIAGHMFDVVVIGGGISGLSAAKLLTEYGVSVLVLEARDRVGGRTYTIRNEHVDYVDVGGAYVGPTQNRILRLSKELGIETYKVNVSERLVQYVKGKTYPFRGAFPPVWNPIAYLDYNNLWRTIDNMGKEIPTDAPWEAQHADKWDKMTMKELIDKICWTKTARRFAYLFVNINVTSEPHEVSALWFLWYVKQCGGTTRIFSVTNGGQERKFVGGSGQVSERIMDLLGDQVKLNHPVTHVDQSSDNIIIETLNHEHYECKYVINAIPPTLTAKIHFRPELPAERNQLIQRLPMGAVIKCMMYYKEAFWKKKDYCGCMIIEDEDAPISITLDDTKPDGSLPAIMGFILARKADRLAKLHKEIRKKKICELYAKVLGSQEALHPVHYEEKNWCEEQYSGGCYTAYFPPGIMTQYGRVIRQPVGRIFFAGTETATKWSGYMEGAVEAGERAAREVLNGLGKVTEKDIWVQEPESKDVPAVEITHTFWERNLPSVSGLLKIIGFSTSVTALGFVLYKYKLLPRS

[5] = molecular target: T2, Amine oxidase [flavin-containing] B (Homo sapiens, UniProt P27338); experiment: Inhibition of recombinant human MAO-B expressed in baculovirus infected insect cell microsomes using kynuramine as substrate measured after 30 mins by fluorescence based assay
T2 sequence (P27338 whole entry): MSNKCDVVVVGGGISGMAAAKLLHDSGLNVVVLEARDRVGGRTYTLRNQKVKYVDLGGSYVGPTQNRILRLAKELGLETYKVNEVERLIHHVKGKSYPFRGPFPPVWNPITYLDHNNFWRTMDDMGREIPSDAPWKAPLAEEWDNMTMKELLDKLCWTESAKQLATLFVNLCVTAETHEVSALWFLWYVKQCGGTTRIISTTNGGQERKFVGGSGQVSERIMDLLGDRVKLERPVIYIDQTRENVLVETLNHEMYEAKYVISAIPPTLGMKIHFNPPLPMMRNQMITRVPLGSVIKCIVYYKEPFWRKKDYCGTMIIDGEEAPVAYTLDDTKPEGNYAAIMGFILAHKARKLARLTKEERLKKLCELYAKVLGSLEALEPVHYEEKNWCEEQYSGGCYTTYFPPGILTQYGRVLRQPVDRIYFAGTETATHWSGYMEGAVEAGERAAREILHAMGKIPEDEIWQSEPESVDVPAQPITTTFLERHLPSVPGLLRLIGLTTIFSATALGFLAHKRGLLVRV

SH-SY5Y [6] = experiment: Cytotoxicity against human SH-SY5Y cells assessed as reduction in cell viability after 24 hrs by MTT assay; type: cell-based
[7] = Apparent permeability from apical to basolateral side in MDCK2-MDR1 cells by UV-Visible spectrophotometric method; type: ADME, cell-based, Canis lupus familiaris; details: dog, MDCK-MDR1
[8] = Efflux ratio of apparent permeability in MDCK2-MDR1 cells by UV-Visible spectrophotometric method; type: ADME, cell-based, Canis lupus familiaris; details: dog, MDCK-MDR1
Acetylcholinesterase [9] = molecular target: Acetylcholinesterase (Electrophorus electricus, UniProt O42275); experiment: Inhibition of electric eel AChE using acetylthiocholine iodide as substrate by Ellman's method
SH-SY5Y [10] = experiment: Neuroprotection against rotenone/H2O2-induced cell death in human SH-SY5Y cells assessed as increase in cell viability preincubated for 24 hrs followed by rotenone/H2O2 addition measured after 24 hrs by MTT assay; type: functional, cell-based
[11] = molecular target: Cholinesterase (Equus caballus) (UniProt P81908); experiment: Inhibition of equine serum BuChE at 10 uM using butyrylthiocholine iodide as substrate by Ellman's method relative to control
[12] = molecular target: T2, Amine oxidase [flavin-containing] B; experiment: Inhibition of recombinant human MAO-B expressed in baculovirus infected insect cell microsomes at 10 uM using kynuramine as substrate measured after 30 mins by fluorescence based assay relative to control; details: 0.5 h
[13] = molecular target: T1, Amine oxidase [flavin-containing] A; experiment: Inhibition of recombinant human MAO-A expressed in baculovirus infected insect cell microsomes at 10 uM using kynuramine as substrate measured after 30 mins by fluorescence based assay relative to control; details: 0.5 h
[14] = molecular target: T2, Amine oxidase [flavin-containing] B; experiment: Inhibition of recombinant human MAO-B expressed in baculovirus infected insect cell microsomes using kynuramine as substrate measured after 30 mins by spectrophotometric assay
Homo sapiens = species on record: Homo sapiens; experiment: Selectivity index, ratio of IC50 for recombinant human MAO-A to IC50 for recombinant human MAO-B
[15] = Drug metabolism in pH 7.4 PBS buffer assessed as 7-({1-[3-(Hydroxymethyl)benzyl]piperidin-4-yl}methoxy)-3,4-dimethyl-2H-chromen-2-one formation at 100 uM up to 30 hrs in presence of glutathione by RP-HPLC method
[16] = Drug metabolism in PBS buffer assessed as nitric oxide release at 150 uM in presence of cysteine by Griess reagent based UV-Visible spectrophotometric method; details: TDE = time-dependent effect
[17] = Drug metabolism in pH 7.4 PBS buffer assessed as 7-({1-[3-(Hydroxymethyl)benzyl]piperidin-4-yl}methoxy)-3,4-dimethyl-2H-chromen-2-one formation at 100 uM after 24 hrs by RP-HPLC method
[18] = Drug metabolism in pH 7.4 PBS buffer assessed as 7-({1-[3-(Hydroxymethyl)benzyl]piperidin-4-yl}methoxy)-3,4-dimethyl-2H-chromen-2-one formation at 100 uM up to 30 hrs in presence of cysteine by RP-HPLC method
[19] = Half life in human serum at 100 uM by RP-HPLC method; type: ADME, cell-free
[20] = Selectivity index, ratio of IC50 for equine serum BuChE to IC50 for electric eel AChE
Cholinesterase [21] = molecular target: T3, Cholinesterase (Homo sapiens, UniProt P06276); experiment: Inhibition of human serum BuChE using butyrylthiocholine iodide as substrate by Ellman's method
Cholinesterase [22] = molecular target: T3, Cholinesterase; experiment: Inhibition of human serum BuChE at 10 uM using butyrylthiocholine iodide as substrate by Ellman's method relative to control

Chain of Acetylcholinesterase (Homo sapiens, UniProt P22303) (P22303 whole entry): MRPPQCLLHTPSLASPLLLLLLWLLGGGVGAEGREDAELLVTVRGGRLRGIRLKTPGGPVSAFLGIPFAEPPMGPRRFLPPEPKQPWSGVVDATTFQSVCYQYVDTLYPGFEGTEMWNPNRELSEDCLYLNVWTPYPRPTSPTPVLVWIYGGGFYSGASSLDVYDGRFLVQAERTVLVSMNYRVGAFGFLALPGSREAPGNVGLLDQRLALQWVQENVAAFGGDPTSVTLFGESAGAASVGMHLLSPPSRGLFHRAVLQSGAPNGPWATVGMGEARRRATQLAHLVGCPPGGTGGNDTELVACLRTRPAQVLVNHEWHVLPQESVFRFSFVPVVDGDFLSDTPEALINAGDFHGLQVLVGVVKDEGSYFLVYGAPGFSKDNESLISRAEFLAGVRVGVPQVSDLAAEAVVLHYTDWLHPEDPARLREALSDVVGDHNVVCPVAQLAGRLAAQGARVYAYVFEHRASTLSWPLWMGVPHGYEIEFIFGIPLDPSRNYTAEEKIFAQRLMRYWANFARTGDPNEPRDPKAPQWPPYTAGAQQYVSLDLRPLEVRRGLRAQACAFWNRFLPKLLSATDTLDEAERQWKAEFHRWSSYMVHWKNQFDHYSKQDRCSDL
Chain of Acetylcholinesterase (Electrophorus electricus, UniProt O42275) (O42275 whole entry): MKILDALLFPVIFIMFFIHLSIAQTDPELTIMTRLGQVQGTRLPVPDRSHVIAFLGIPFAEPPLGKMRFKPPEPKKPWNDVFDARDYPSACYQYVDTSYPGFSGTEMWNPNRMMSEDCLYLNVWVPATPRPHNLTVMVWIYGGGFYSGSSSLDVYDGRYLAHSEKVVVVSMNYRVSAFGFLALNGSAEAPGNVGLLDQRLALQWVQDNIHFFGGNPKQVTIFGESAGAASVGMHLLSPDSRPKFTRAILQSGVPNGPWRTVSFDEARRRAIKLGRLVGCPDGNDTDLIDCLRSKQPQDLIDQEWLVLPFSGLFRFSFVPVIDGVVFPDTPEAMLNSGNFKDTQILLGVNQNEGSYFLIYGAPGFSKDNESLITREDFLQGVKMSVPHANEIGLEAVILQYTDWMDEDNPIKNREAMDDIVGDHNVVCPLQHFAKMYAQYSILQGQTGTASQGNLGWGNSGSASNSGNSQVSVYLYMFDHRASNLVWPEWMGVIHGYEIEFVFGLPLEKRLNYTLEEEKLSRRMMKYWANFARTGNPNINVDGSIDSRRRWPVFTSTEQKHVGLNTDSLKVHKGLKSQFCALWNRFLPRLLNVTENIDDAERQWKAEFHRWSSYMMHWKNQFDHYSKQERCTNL
Chain of Cholinesterase (Equus caballus) (P81908 whole entry): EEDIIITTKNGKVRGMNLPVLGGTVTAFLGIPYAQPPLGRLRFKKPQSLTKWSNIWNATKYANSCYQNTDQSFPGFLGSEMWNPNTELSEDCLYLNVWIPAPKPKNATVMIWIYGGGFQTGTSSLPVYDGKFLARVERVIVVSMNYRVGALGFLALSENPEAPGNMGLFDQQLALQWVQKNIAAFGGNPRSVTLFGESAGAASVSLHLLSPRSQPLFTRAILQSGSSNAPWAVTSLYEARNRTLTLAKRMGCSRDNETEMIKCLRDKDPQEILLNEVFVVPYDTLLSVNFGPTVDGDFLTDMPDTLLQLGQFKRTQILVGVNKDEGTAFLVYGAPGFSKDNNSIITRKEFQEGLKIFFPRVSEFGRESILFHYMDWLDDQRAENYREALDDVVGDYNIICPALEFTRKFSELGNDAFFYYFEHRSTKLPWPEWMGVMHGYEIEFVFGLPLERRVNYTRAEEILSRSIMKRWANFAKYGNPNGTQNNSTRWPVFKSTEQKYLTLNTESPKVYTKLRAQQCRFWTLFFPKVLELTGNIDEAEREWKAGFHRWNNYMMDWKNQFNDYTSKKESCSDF
Chain of Cholinesterase (Equus caballus, UniProt P81908) (P81908 whole entry): as above
T3 sequence (P06276 whole entry): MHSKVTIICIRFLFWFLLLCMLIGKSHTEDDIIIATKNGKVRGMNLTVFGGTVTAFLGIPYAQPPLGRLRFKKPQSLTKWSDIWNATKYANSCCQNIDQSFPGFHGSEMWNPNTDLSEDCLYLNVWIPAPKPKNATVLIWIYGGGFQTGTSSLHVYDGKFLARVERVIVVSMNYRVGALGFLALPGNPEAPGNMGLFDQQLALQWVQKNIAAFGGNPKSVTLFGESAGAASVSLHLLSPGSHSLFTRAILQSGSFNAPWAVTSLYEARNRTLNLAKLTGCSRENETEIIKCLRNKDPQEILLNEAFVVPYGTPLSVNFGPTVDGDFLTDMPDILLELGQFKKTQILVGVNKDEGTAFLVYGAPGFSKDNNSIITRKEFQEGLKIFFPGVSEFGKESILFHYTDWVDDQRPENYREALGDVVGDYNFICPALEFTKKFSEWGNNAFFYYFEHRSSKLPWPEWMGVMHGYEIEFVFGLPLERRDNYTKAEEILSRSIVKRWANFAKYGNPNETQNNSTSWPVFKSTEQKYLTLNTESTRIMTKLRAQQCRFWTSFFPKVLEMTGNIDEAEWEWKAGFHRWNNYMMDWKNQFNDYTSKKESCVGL

Cc1c(C)c2ccc(OCC3CCN(Cc4cccc(CO)c4)CC3)cc2oc1=O
IC50 (Cholinesterase [1]): 1300 nM | Papp B→A [2]: 21.5 ×10⁻⁶ cm/s | IC50 (Acetylcholinesterase [3]): 1400 nM | IC50 [4]: 1900 nM | IC50 [5]: 76 nM | Activity (SH-SY5Y [6]): 43 µM | Papp A→B [7]: 19.8 ×10⁻⁶ cm/s | efflux ratio [8]: 1.09 | IC50 (Acetylcholinesterase [9]): 1000 nM | Activity (SH-SY5Y [10]): Dose-dependent effect

Cc1c(C)c2ccc(OCC3CCN(Cc4ccc(CCO)cc4)CC3)cc2oc1=O
inhibition [11]: 41% | IC50 [4]: 1700 nM | IC50 [5]: 120 nM | IC50 (Acetylcholinesterase [9]): 1200 nM

O=c1ccc2ccc(OCC3CCCN(CCCO)C3)cc2o1 (centres undefined)
IC50 (Cholinesterase [1]): 1700 nM | inhibition at 10 µM [12]: 42% | IC50 (Acetylcholinesterase [9]): 3500 nM | inhibition at 10 µM [13]: 14%

CN(C)Cc1cccc(COc2ccc3c(CO)cc(=O)oc3c2)c1
inhibition [11]: 36% | IC50 [5]: 54 nM | IC50 (Acetylcholinesterase [9]): 5900 nM | inhibition at 10 µM [13]: 42%

Cc1c(C)c2ccc(OCCC3CCN(CCCO)CC3)cc2oc1=O
inhibition at 10 µM [12]: 31% | inhibition [11]: 39% | IC50 (Acetylcholinesterase [9]): 720 nM | inhibition at 10 µM [13]: 35%

Cc1c(C)c2ccc(OCC3CCCN(CCCO)C3)cc2oc1=O (centres undefined)
inhibition [11]: 26% | IC50 [5]: 1500 nM | IC50 (Acetylcholinesterase [9]): 1800 nM | inhibition at 10 µM [13]: 41%

Cc1cc(=O)oc2cc(OCC3CCN(Cc4ccc(CO)cc4)CC3)ccc12
inhibition [11]: 45% | IC50 [4]: 11000 nM | IC50 [5]: 600 nM | IC50 (Acetylcholinesterase [9]): 1600 nM

CN(C)Cc1cc(=O)oc2cc(OCc3cccc(CO)c3)ccc12
inhibition [11]: 35% | IC50 [5]: 1100 nM | IC50 (Acetylcholinesterase [9]): 4400 nM | inhibition at 10 µM [13]: 21%

Cc1c(C)c2ccc(OCc3cccc(CN4CCC(CO)CC4)c3)cc2oc1=O
IC50 (Cholinesterase [1]): 1000 nM | IC50 [5]: 320 nM | IC50 (Acetylcholinesterase [9]): 2900 nM | inhibition at 10 µM [13]: 23%

CN(C)Cc1cc(=O)oc2cc(OCc3ccc(CO)cc3)ccc12
IC50 (Cholinesterase [1]): 11000 nM | IC50 [5]: 630 nM | IC50 [14]: 770 nM | IC50 (Acetylcholinesterase [9]): 1300 nM | inhibition at 10 µM [13]: 23%

Cc1c(C)c2ccc(OCC3CCN(Cc4ccc(CO)cc4)CC3)cc2oc1=O
IC50 (Cholinesterase [1]): 8800 nM | IC50 [4]: 1400 nM | IC50 [5]: 29 nM | Ratio IC50 (Homo sapiens): 48 | IC50 [14]: 39 nM | IC50 (Acetylcholinesterase [9]): 1000 nM

Cc1cc2ccc(OCC3CCN(Cc4ccc(CO)cc4)CC3)cc2oc1=O
IC50 (Cholinesterase [1]): 8100 nM | IC50 [5]: 3100 nM | IC50 (Acetylcholinesterase [9]): 3000 nM | inhibition at 10 µM [13]: 43%

Cc1c(C)c2ccc(OCC3CCN(Cc4cccc(CO[N+](=O)[O-])c4)CC3)cc2oc1=O
Drug metabolism [15]: Metabolite detected | Papp B→A [2]: 16.5 ×10⁻⁶ cm/s | IC50 (Acetylcholinesterase [3]): 1300 nM | Drug metabolism [16]: Tde | IC50 [4]: 230 nM | IC50 [5]: 51 nM | Activity (SH-SY5Y [6]): 36 µM | Papp A→B [7]: 12.4 ×10⁻⁶ cm/s | efflux ratio [8]: 1.33 | Drug metabolism [17]: 7% | Drug metabolism [18]: Metabolite detected | half-life at 100 µM [19]: 36.8 h | Activity (SH-SY5Y [10]): Dose-dependent effect

Cc1c(C)c2ccc(OCC3CCCN(Cc4cccc(CO)c4)C3)cc2oc1=O (centres undefined)
IC50 (Cholinesterase [1]): 2700 nM | IC50 [4]: 2200 nM | IC50 [5]: 110 nM | IC50 (Acetylcholinesterase [9]): 900 nM

Cc1c(C)c2ccc(OCC3CCN(CCCCO)CC3)cc2oc1=O
IC50 (Cholinesterase [1]): 8300 nM | IC50 [5]: 3600 nM | IC50 (Acetylcholinesterase [9]): 500 nM | inhibition at 10 µM [13]: 30%

Cc1c(C)c2ccc(OCC3CCN(Cc4cccc(OCCCO)c4)CC3)cc2oc1=O
IC50 (Cholinesterase [1]): 180 nM | IC50 (Acetylcholinesterase [3]): 840 nM | Ratio IC50 [20]: 0.1 | IC50 [4]: 550 nM | IC50 [5]: 780 nM | Ratio IC50 (Homo sapiens): 0.7 | IC50 (Acetylcholinesterase [9]): 1800 nM | IC50 (Cholinesterase [21]): 740 nM

Cc1cc2ccc(OCC3CCN(Cc4cccc(CO)c4)CC3)cc2oc1=O
IC50 (Cholinesterase [1]): 910 nM | IC50 [4]: 3900 nM | IC50 [5]: 1100 nM | IC50 (Acetylcholinesterase [9]): 3200 nM

Cc1cc(=O)oc2cc(OCC3CCN(Cc4cccc(CO)c4)CC3)ccc12
IC50 (Cholinesterase [1]): 1900 nM | IC50 [4]: 3500 nM | IC50 [5]: 480 nM | IC50 (Acetylcholinesterase [9]): 1600 nM

CN(C)Cc1ccc(COc2ccc3c(CO)cc(=O)oc3c2)cc1
inhibition [11]: 43% | IC50 [5]: 78 nM | IC50 [14]: 74 nM | IC50 (Acetylcholinesterase [9]): 4500 nM | inhibition at 10 µM [13]: 20%

Cc1c(C)c2ccc(OCC3CCN(CCCO)CC3)cc2oc1=O
Papp B→A [2]: 14.9 ×10⁻⁶ cm/s | IC50 (Acetylcholinesterase [3]): 890 nM | inhibition [11]: 30% | IC50 [5]: 480 nM | Activity (SH-SY5Y [6]): > 100 µM | inhibition (Cholinesterase [22]): < 5% | Papp A→B [7]: 9.92 ×10⁻⁶ cm/s | efflux ratio [8]: 1.5 | IC50 (Acetylcholinesterase [9]): 1300 nM | inhibition at 10 µM [13]: 44% | Activity (SH-SY5Y [10]): Dose-dependent effect

Cc1c(C)c2ccc(OCC3CCCN(Cc4ccc(CO)cc4)C3)cc2oc1=O (centres undefined)
IC50 (Cholinesterase [1]): 8600 nM | IC50 [4]: 1100 nM | IC50 [5]: 76 nM | IC50 (Acetylcholinesterase [9]): 1200 nM
